The values that follow come from ChEMBL document CHEMBL1134136, “Novel piperidinyloxy oxazolidinone antimicrobial agents” (2001).

SMILES strings stand for the structures. In brackets after ≈: the same amount, converted by molar mass.

Common to all, as to type: functional
Assay [1] concerns Enterococcus faecium. Nature of the assay: Antibacterial activity against vancomycin - resistant Enterococcus faecium (OC 3312 VRE).
The next assay relates to Enterococcus faecalis. Nature of the assay: Antibacterial activity against Enterococcus faecalis (ATCC 29212).
For assay [2], the system named is Escherichia coli. Nature of the assay: Antibacterial activity against Escherichia coli (OC 2530) (HS).
For assay [3], the system named is Escherichia coli. As to the kind of experiment: Antibacterial activity against Escherichia coli (OC 2605).
The test system of assay [4] is Staphylococcus aureus. Nature of the assay: Antibacterial activity against methicillin susceptible Staphylococcus aureus (OC 4172) in broth (without serum).
Assay [5] relates to Staphylococcus aureus. As to the kind of experiment: Antibacterial activity against methicillin susceptible Staphylococcus aureus (OC 4172) in presence of 50% mouse serum.
The subject of assay [6] is Staphylococcus aureus. As to the kind of experiment: Antibacterial activity against methicillin - resistant Staphylococcus aureus (MRSA OC2878).
Assay [7] has as its system Staphylococcus aureus. As to the kind of experiment: Antibacterial activity towards methicillin - resistant Staphylococcus aureus (MRSA OC2878).
Assay [8] relates to Enterococcus faecium. Nature of the assay: Minimum inhibitory concentration against vancomycin - resistant Enterococcus faecium (OC 3312 VRE).

Turning to `CC(=O)NC[C@H]1CN(c2ccc(OC3CCN(C(=O)CO)C3)c(F)c2)C(=O)O1` (stereo partly drawn), the MIC in the assay on Enterococcus faecium [1] turned out to be 16 µg/mL (≈ 40.5 µM); against Enterococcus faecalis, 16 µg/mL (≈ 40.5 µM); against Escherichia coli [2], 128 µg/mL (≈ 324 µM); with Escherichia coli [3] it was 128 µg/mL (≈ 324 µM); with Staphylococcus aureus [4] it was 4 µg/mL (≈ 10.1 µM); in the assay on Staphylococcus aureus [5], 4 µg/mL. The molecule further had an MIC in the assay with Staphylococcus aureus [6] of 8 µg/mL (≈ 20.2 µM).
In the case of `CC(=O)NC[C@H]1CN(c2ccc(N3CCOCC3)c(F)c2)C(=O)O1` [LINEZOLID], the MIC in the assay with Enterococcus faecium [1] was 2 µg/mL (≈ 5.93 µM); in the assay with Escherichia coli [2], 8 µg/mL (≈ 23.7 µM); against Escherichia coli [3], 32 µg/mL (≈ 94.9 µM).
With `CC(=O)NC[C@H]1CN(c2ccc(OC3CCN(C(=O)CO)CC3)c(F)c2)C(=O)O1`, the minimal inhibitory concentration (MIC) is 8 µg/mL (≈ 19.5 µM) in the assay with Enterococcus faecium [1]; 8 µg/mL (≈ 19.5 µM) in the assay with Enterococcus faecalis; 128 µg/mL (≈ 313 µM) against Escherichia coli [2]; above 128 µg/mL against Escherichia coli [3]; 4 µg/mL (≈ 9.77 µM) in the assay with Staphylococcus aureus [4]; 4 µg/mL with Staphylococcus aureus [5]. Besides, the minimum inhibitory concentration (MIC) with Staphylococcus aureus [6] was determined as 4 µg/mL (≈ 9.77 µM).
For `CC(=O)NC[C@H]1CN(c2ccc(OC3CCN(C(=O)COCc4ccccc4)CC3)c(F)c2)C(=O)O1`, the minimal inhibitory concentration (MIC) against Enterococcus faecium [1] is 4 µg/mL (≈ 8.01 µM); in the assay on Enterococcus faecalis, 4 µg/mL (≈ 8.01 µM); against Escherichia coli [2], above 32 µg/mL; in the assay on Escherichia coli [3] it was above 128 µg/mL; in the assay on Staphylococcus aureus [7], 2 µg/mL (≈ 4 µM); in the assay with Staphylococcus aureus [4], 4 µg/mL (≈ 8.01 µM). Also, the MIC with Staphylococcus aureus [5] stood at 16 µg/mL.
For `CC(=O)NC[C@H]1CN(c2ccc(OC3CN(C(=O)CO)C3)c(F)c2)C(=O)O1`, the MIC against Enterococcus faecium [1] was 16 µg/mL (≈ 42 µM); in the assay on Enterococcus faecalis, 16 µg/mL (≈ 42 µM); with Escherichia coli [2] it was above 128 µg/mL; against Escherichia coli [3] it was above 128 µg/mL; with Staphylococcus aureus [4] it was 8 µg/mL (≈ 21 µM); in the assay on Staphylococcus aureus [5], 8 µg/mL. In the assay on Staphylococcus aureus [6], this molecule showed a minimal inhibitory concentration (MIC) of 8 µg/mL (≈ 21 µM).
Consider `CC(=O)NC[C@H]1CN(c2ccc(OC3CCCN(C(=O)CO)C3)c(F)c2)C(=O)O1` (stereo partly drawn), for which the minimum inhibitory concentration (MIC) in the assay with Enterococcus faecium [1] was 16 µg/mL (≈ 39.1 µM); with Enterococcus faecalis, 16 µg/mL (≈ 39.1 µM); with Escherichia coli [2], 128 µg/mL (≈ 313 µM); in the assay on Escherichia coli [3], above 128 µg/mL; against Staphylococcus aureus [4], 8 µg/mL (≈ 19.5 µM); in the assay with Staphylococcus aureus [5], 8 µg/mL. Further, the MIC in the assay with Staphylococcus aureus [6] was 8 µg/mL (≈ 19.5 µM).
As to `CC(=O)NC[C@H]1CN(c2ccc(OC3CCN(C(=O)COCc4ccccc4)C3)c(F)c2)C(=O)O1` (stereo partly drawn), the MIC in the assay on Enterococcus faecium [1] is 16 µg/mL (≈ 33 µM); against Enterococcus faecalis it was 16 µg/mL (≈ 33 µM); against Escherichia coli [2], above 128 µg/mL; in the assay on Escherichia coli [3] it was above 128 µg/mL; in the assay with Staphylococcus aureus [4] it was 16 µg/mL (≈ 33 µM); in the assay on Staphylococcus aureus [5], 16 µg/mL. Further, it took 16 µg/mL (≈ 33 µM) to inhibit growth in the assay on Staphylococcus aureus [6] (MIC).
As to `CC(=O)NC[C@H]1CN(c2ccc(OC3CCCN(C(=O)COCc4ccccc4)C3)c(F)c2)C(=O)O1` (stereo partly drawn), the MIC with Enterococcus faecium [1] is 64 µg/mL (≈ 128 µM); against Enterococcus faecalis it was 64 µg/mL (≈ 128 µM); with Escherichia coli [2], above 64 µg/mL; against Escherichia coli [3], above 128 µg/mL; against Staphylococcus aureus [4], 32 µg/mL (≈ 64.1 µM); in the assay on Staphylococcus aureus [5] it was 32 µg/mL. Moreover, the MIC in the assay with Staphylococcus aureus [6] was 32 µg/mL (≈ 64.1 µM).
Regarding `CC(=O)NC[C@H]1CN(c2ccc(OC3CN(C(=O)COCc4ccccc4)C3)c(F)c2)C(=O)O1`, the minimum inhibitory concentration (MIC) in the assay on Enterococcus faecium [1] is 16 µg/mL (≈ 33.9 µM); against Enterococcus faecalis, 16 µg/mL (≈ 33.9 µM); in the assay with Escherichia coli [2] it was 64 µg/mL (≈ 136 µM); in the assay on Escherichia coli [3], above 128 µg/mL; in the assay with Staphylococcus aureus [4] it was 8 µg/mL (≈ 17 µM); in the assay with Staphylococcus aureus [5] it was 16 µg/mL. In addition, 8 µg/mL (≈ 17 µM) was the least that counted as inhibitory in the assay with Staphylococcus aureus [6] (MIC).
Take `CC(=O)NC[C@H]1CN(c2ccc(OC3CCN(C(=O)CO)CC3)cc2)C(=O)O1`: the MIC in the assay with Enterococcus faecium [1] is 32 µg/mL (≈ 81.8 µM); against Enterococcus faecalis, 32 µg/mL (≈ 81.8 µM); against Escherichia coli [2] it was above 128 µg/mL; against Escherichia coli [3] it was above 128 µg/mL; in the assay with Staphylococcus aureus [4], 16 µg/mL (≈ 40.9 µM); in the assay with Staphylococcus aureus [5], 32 µg/mL. It took 16 µg/mL (≈ 40.9 µM) to inhibit growth with Staphylococcus aureus [6] (MIC).
`CC(=O)NC[C@H]1CN(c2ccc(OC3CCN(C(=O)COCc4ccccc4)CC3)cc2)C(=O)O1`: the MIC in the assay with Enterococcus faecalis came out at 16 µg/mL (≈ 33.2 µM); against Escherichia coli [2] it was 128 µg/mL (≈ 266 µM); with Escherichia coli [3] it was 128 µg/mL (≈ 266 µM); in the assay with Staphylococcus aureus [4], 16 µg/mL (≈ 33.2 µM); in the assay on Staphylococcus aureus [5], 64 µg/mL; against Staphylococcus aureus [6], 8 µg/mL (≈ 16.6 µM). Also, the MIC with Enterococcus faecium [8] is 16 µg/mL (≈ 33.2 µM).
